These results are taken from patent EP0678516B1, “Preparation of 2-bromo-5-(2-bromo-2-nitrovinyl)-furan and its use as microcide” (CENTRO DE BIOACTIVOS QUIMICOS DE LA UNIVERSIDAD CENTRAL DE …, priority 1994, dated 1995).

The test system of test [1] is septic puerperal metritis. The test can be described thus: Treatment of septic puerperal metritis. Type of test: in vivo, female oxes. As to conditions: G-1 1.5% oil solution intrauterine, Tetracycline abdominal aorta route. As for the experimental part: The treatment consisted in applying 40 ml for three consecutive days at intervals of 24 hours from the diagnosis of the disease process. Treatment was compared with intrasoric tetracyclin.

Test [2] concerns conjunctivitis, Querratitis, Queratoconjunctivitis. The test can be described thus: Clinical test, external treatment of eye infections in animals. As to conditions: Dogs. It is filed as in vivo. The source says: (§1) The effectiveness of the active principle against bacterial eye diseases in: 9435 animal eyes affected with queratoconjunctivitis; 8093 of cattle and 1342 of other species (sheep, rabbits, dogs, horses, pigs, cats, guinea-pigs and birds).
(§2) In some cases the result of the medicament was compared with others habitually used for these treatments.
(§3) Read: 1 = Bovine infectious queratoconjunctivitis (PE) = small scale or clinical test in conditions controlled on a small scale (U) = ointment (I) = injectable n = number of eyes treated P± = Average of treatment for clinical recuperation (weighted average) Rc = clinical recuperation 2 = conjunctivitis 3 = Querratitis 4= Queratoconjunctivitis 5= Blefaritis 6= general eye infection 7= clinical extension or test compared in conditions of extension (*) = Massive application in therapeutic survey in the new different animal species (G-1) = refers to 2-bromo-5-(2-bromo-2-nitro-vinyl)-furan

In test [3] the test system is conjunctivitis and Blefaritis. Described as above. Type of test: in vivo. As to conditions: Rabbits.
Excerpt: as §1, §2, §3

The subject of test [4] is Bovine infectious queratoconjunctivitis. The test can be described thus: Clinical test, external treatment of eye infections in animals (extension). It is filed as in vivo. The settings on record: Cattle (E).
Excerpt: as §1, §2, §3

Test [5] shares this test system. In words: Clinical test, external treatment of eye infections in animals. It is filed as in vivo. As to conditions: Cows (PE), small scale controlled clinical test.
Excerpt: as §1, §2, §3

Test [6] has as its system Streptococcus agalactiae and Staphylococcus aureus. The test can be described thus: Intracisternal treatment of clinical mastitis. Type of test: in vivo, femal oxes. The source says:
The active principle in a concentration of 0.1 % is applied by intracisternal route daily for three consecutive days in femal oxes clinically affected by mastitis of morbid catarrh purulen course types, in which the isolated micro-organisms were Streptococcus agalactiae and Staphylococcus aureus. As a control medicament the mammary infusion of neomicine was used.

For the molecule `CN(C)[C@@H]1C(O)=C(C(N)=O)C(=O)[C@@]2(O)C(O)=C3C(=O)c4c(O)cccc4[C@@](C)(O)[C@H]3C[C@@H]12` [Tetracycline, reference compound], the Recuperated n in test [1] (27 females, 19 females) is reported as 13. Also, in test [1], the “IIA (Artificial insemination index)” value is reported as 1.78± 1.99b, the Recuperated % is on record as 68.4% and the “T-R (Average of treatment interval of clinical recuperation)” value stood at 39 days. Also, the “IIA (Artificial insemination index)” value in test [1] (listed as tetracycline) worked out at 1.78 ± 1.99.
In the case of `O=C(N[C@H](CO)[C@H](O)c1ccc([N+](=O)[O-])cc1)C(Cl)Cl` [Chloran-fenicol-(U), Chloran-fenicol], the “P± (Average of treatment for clinical recuperation, weighted average)” value in test [2] was determined as 7.3b; in test [3], 3.2a; in test [4], 3.4a. For the same molecule, the “Re (clinical recuperation)” value in test [2] is listed as 81.5a %; in test [4], 86.6a %.
On to `O=C(N[C@H](CO)[C@H](O)c1ccc([N+](=O)[O-])cc1)C(Cl)Cl` [Chloran-fenicol-(I), Chloran-fenicol], for which, in test [5], the “P± (Average of treatment for clinical recuperation, weighted average)” value was found to be 3.1ab and the “Re (clinical recuperation)” value stood at 80.6ba %.
As for neomicine [reference compound], the “Recuperated n (affected parts)” value in test [6] (G-I 0.1% intracisternal daily for three days (57 parts), neomicine mammary infusion (12 parts)) was 12. For the same molecule, in test [6] (G-I 0.1% intracisternal daily for three days, neomicine mammary infusion), the “Recuperated % (clinical recuperation of the affected parts)” value is listed as 100%.
